We go through 21 compounds from US7384931B2, “Constrained compounds as CGRP-receptor antagonists” (Bristol-Myers Squibb Company, priority 2004, dated 2008).

Some results are limits rather than exact numbers.

Chain of CGRP receptor (Q16602 23-461): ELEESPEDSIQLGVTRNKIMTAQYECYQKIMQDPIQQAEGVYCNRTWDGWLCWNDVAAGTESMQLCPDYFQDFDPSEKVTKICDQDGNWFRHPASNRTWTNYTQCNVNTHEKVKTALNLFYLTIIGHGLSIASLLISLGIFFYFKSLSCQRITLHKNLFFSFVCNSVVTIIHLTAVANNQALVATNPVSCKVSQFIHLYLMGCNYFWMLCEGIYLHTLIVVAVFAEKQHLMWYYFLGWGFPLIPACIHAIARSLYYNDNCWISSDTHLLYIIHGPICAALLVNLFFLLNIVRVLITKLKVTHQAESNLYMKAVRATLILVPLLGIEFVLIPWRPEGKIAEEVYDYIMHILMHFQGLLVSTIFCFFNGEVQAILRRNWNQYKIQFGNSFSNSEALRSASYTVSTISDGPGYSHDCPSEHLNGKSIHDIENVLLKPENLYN
Chain of CGRP receptor (O60894 27-148): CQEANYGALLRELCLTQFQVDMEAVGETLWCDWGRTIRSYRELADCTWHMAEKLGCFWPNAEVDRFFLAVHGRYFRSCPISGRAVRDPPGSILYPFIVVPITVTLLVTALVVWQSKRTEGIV

The target in the experiment is CGRP receptor (Homo sapiens, UniProt O60894+Q16602). The experiment can be described thus: CGRP radioligand binding assay ([125I]-CGRP displacement, SK-N-MC homogenate). On the set-up: endogenous in cells; host or cells: SK-N-MC cells (homogenate/membrane pellet). The settings on record: displacement of [125I]-CGRP, room temperature 2 h. How it is done:
CGRP Binding Assay. Tissue Culture. SK—N-MC cells were grown at 37° C. in 5% CO2 as a monolayer in medium consisting of MEM with Earle's salts and L-glutamine (Gibco) supplemented with 10% fetal bovine serum (Gibco). Cell Pellets. The cells were rinsed twice with phosphate-buffered saline (155 mM NaCl, 3.3 mM Na2HPO4, 1.1 mM KH2PO4, pH 7.4), and incubated for 5-10 min. at 4° C. in hypotonic lysis buffer consisting of 10 mM Tris (pH 7.4) and 5 mM EDTA. The cells were transferred from plates to polypropylene tubes (16×100 mm) and homogenized using a polytron. Homogenates were centrifuged at 32,000×g for 30 min. The pellets were resuspended in cold hypotonic lysis buffer with 0.1% mammalian protease inhibitor cocktail (Sigma) and assayed for protein concentration. The SK—N-MC homogenate was then aliquoted and stored at −80° C. until needed.
Radioligand Binding Assay. The compounds of invention were solubilized and carried through serial dilutions using 100% DMSO. Aliquots from the compound serial dilutions were further diluted 25 fold into assay buffer (50 mM Tris-Cl pH 7.5, 5 mM MgCl2, 0.005% Triton X-100) and transferred (volume 50 μl) into 96 well assay plates. [^125I]-CGRP (Amersham Biosciences) was diluted to 60 pM in assay buffer and a volume of 50 μl was added to each well. SK—N-MC pellets were thawed, diluted in assay buffer with fresh 0.1% mammalian protease inhibitor cocktail (Sigma), and homogenized again. SK—N-MC homogenate (5 μg/well) was added in a volume of 100 μl. The assay plates were then incubated at room temperature for 2 h. Assays were stopped by addition of excess cold wash buffer (20 mM Tris-Cl pH 7.5, 0.1% BSA) immediately followed by filtration over glass fiber filters (Whatman GF/B) previously soaked in 0.5% PEI. Non-specific binding was defined with 1 μM beta-CGRP. Protein bound radioactivity was determined using a gamma or scintillation counter. The IC50 was defined as the concentration of a compound of invention required to displace 50% of radioligand binding.
The compound `CC(C)(C)CN1Cc2c(cc(Cl)c3[nH]ncc23)C[C@@H](CC(=O)Nc2ccc3c(c2)CCC2(C3)NC(=O)NC2=O)C1=O` (mixture of isomers) [Example 86, (±)-1-[[(7S)-4-chloro-9-(2,2-dimethylpropyl)-3,6,7,8,9,10-hexahydro-8-oxoazepino[3,4-e]indazol-7-yl]yacetyl]-Amino-3′,4′-dihydro-^1H-spiro[imidazolidine-4,2′naphthalene]-2,5-dione] had an IC50 of 0.1 to 10 nM.

Turning to `CC(C)(C)CN1Cc2c(cc(Cl)c3[nH]ncc23)C[C@@H](CC(=O)Nc2ccc3c(c2)CC2(C3)NC(=O)NC2=O)C1=O` (mixture of isomers) [Example 87, (±)-1-[[(7S)-4-chloro-9-(2,2-dimethylpropyl)-3,6,7,8,9,10-hexahydro-8-oxoazepino[3,4-e]indazol-7-yl]acetyl]-Amino-spiro[imidazolidine-4,2′-indane]-2,5-dione], the IC50 fell in the range of 10 to 100 nM.

As for `CN1Cc2c(ccc3[nH]ncc23)C[C@@H](NC(=O)N2CCC(N3Cc4ccccc4NC3=O)CC2)C1=O` [Example 2, 4-(2-Oxo-1,4-dihydro-2H-quinazolin-3-yl)-piperidine-1-carboxylic acid (9-methyl-8-oxo-3,6,7,8,9,10-hexahydro-2,3,9-triaza-(R)-cyclohepta[e]inden-7-yl)-amide], the IC50 fell in the range of 100 to 1000 nM.

The compound `O=C(N[C@@H]1Cc2ccc3[nH]ncc3c2CN(CCN2CCCCC2)C1=O)N1CCC(N2Cc3ccccc3NC2=O)CC1` [Example 3, 4-(2-Oxo-1,4-dihydro-2H-quinazolin-3-yl)-piperidine-1-carboxylic acid [8-oxo-9-(2-piperidin-1-yl-ethyl)-3,6,7,8,9,10-hexahydro-2,3,9-triaza-(R)-cyclohepta[e]inden-7-yl]-amide] registered a 50% inhibitory concentration (IC50) of 100 to 1000 nM.

`O=C(N[C@@H]1Cc2ccc3[nH]ncc3c2CN(CCN2CCCC2)C1=O)N1CCC(N2Cc3ccccc3NC2=O)CC1` [Example 4, 4-(2-Oxo-1,4-dihydro-2H-quinazolin-3-yl)-piperidine-1-carboxylic acid [8-oxo-9-(2-pyrrolidin-1-yl-ethyl)-3,6,7,8,9,10-hexahydro-2,3,9-triaza-(R)-cyclohepta[e]inden-7-yl]-amide] registered an IC50 of 100 to 1000 nM.

In turn, `CN(C)CCN1Cc2c(ccc3[nH]ncc23)C[C@@H](NC(=O)N2CCC(N3Cc4ccccc4NC3=O)CC2)C1=O` [Example 5, 4-(2-Oxo-1,4-dihydro-2H-quinazolin-3-yl)-piperidine-1-carboxylic acid [9-(2-dimethylamino-ethyl)-8-oxo-3,6,7,8,9,10-hexahydro-2,3,9-triaza-(R)-cyclohepta[e]inden-7-yl]-amide] had an IC50 of 100 to 1000 nM.

As for `O=C1Nc2ccccc2C2(CCN(C(=O)N[C@@H]3Cc4ccc5[nH]ncc5c4CN(CCN4CCOCC4)C3=O)CC2)N1` [Example 8, ′H-Spiro[piperidine-4,4′-quinazolin]-2′(3′H)-one-1-carboxylic acid [9-(2-morpholin-4-yl-ethyl)-8-oxo-3,6,7,8,9,10-hexahydro-2,3,9-triaza-(R)-cyclohepta[e]inden-7-yl]-amide], the IC50 was more than 1000 nM.

As to `C[C@@H](c1ccccc1)N1Cc2c(ccc3[nH]ncc23)C[C@@H](NC(=O)N2CCC3(CC2)NC(=O)Nc2ccccc23)C1=O` [Example 9, ′^1H-Spiro[piperidine-4,4′-quinazolin]-2′(3′H)-one-1-carboxylic acid [8-oxo-9-(1-(S)-phenyl-ethyl)-3,6,7,8,9,10-hexahydro-2,3,9-triaza-(R)-cyclohepta[e]inden-7-yl]-amide], the half-inhibitory concentration (IC50) lay in the range of 100 to 1000 nM.

Turning to `O=C(N[C@@H]1Cc2ccc3[nH]ncc3c2CN(Cc2ccc(C(F)(F)F)cc2)C1=O)N1CCC(N2Cc3ccccc3NC2=O)CC1` [Example 13, 4-(2-Oxo-1,4-dihydro-2H-quinazolin-3-yl)-piperidine-1-carboxylic acid [8-oxo-9-(4-trifluoromethyl-benzyl)-3,6,7,8,9,10-hexahydro-2,3,9-triaza-(R)-cyclohepta[e]inden-7-yl]-amide], the IC50 was 10 to 100 nM.

The compound `O=C1Nc2ccccc2C2(CCN(C(=O)N[C@@H]3Cc4ccc5[nH]ncc5c4CN(Cc4ccc(C(F)(F)F)cc4)C3=O)CC2)N1` [Example 14, ′H-spiro[piperidine-4,4′-quinazolin]-2′(3′H)-one-1-carboxylic acid [8-oxo-9-(4-trifluoromethyl-benzyl)-3,6,7,8,9,10-hexahydro-2,3,9-triaza-(R)-cyclohepta[e]inden-7-yl]-amide] gave an IC50 of 100 to 1000 nM.

With `CC(C)N1Cc2c(ccc3[nH]ncc23)C[C@@H](NC(=O)N2CCC(N3Cc4ccccc4NC3=O)CC2)C1=O` [Example 15, 4-(2-Oxo-1,4-dihydro-2H-quinazolin-3-yl)-piperidine-1-carboxylic acid (9-isopropyl-8-oxo-3,6,7,8,9,10-hexahydro-2,3,9-triaza-(R)-cyclohepta[e]inden-7-yl)-amide], the IC50 lay in the range of 10 to 100 nM.

Take `CC(C)(C)OC(=O)N1CCC(N2Cc3c(ccc4[nH]ncc34)C[C@@H](NC(=O)N3CCC(N4Cc5ccccc5NC4=O)CC3)C2=O)CC1` [Example 17]: the IC50 lay within 10 to 100 nM.

`O=C(N[C@@H]1Cc2ccc3[nH]ncc3c2CN(C2CCNCC2)C1=O)N1CCC(N2Cc3ccccc3NC2=O)CC1` [Example 18, 4-(2-Oxo-1,4-dihydro-2H-quinazolin-3-yl)-piperidine-1-carboxylic acid (8-oxo-9-piperidin-4-yl-3,6,7,8,9,10-hexahydro-2,3,9-triaza-(R)-cyclohepta[e]inden-7-yl)-amide]: the IC50 lay within 100 to 1000 nM.

The compound `CC(C)(C)CN1Cc2c(ccc3[nH]ncc23)CC(NC(=O)N2CCC3(CC2)NC(=O)Nc2ccccc23)C1=O` (stereo not drawn) [Example 23, N-[9-(2,2-dimethylpropyl)-8-oxo-3,6,7,8,9,10-hexahydroazepino[3,4-e]indazol-7-yl]-2′-oxo-2′,3′dihydro-1H, 1′H-spiro[piperidine-4,4′-quinazoline]-1-carboxamide] yielded an IC50 of 10 to 100 nM.

`CC(C)CN1Cc2c(ccc3[nH]ncc23)CC(NC(=O)N2CCC3(CC2)NC(=O)Nc2ccccc23)C1=O` (stereo not drawn) [Example 25, N-[9-(2-methylpropyl)-8-oxo-3,6,7,8,9,10-hexahydroazepino[3,4-e]indazol-7-yl]-2′-oxo-2′,3′-dihydro-1H, 1′H-spiro[piperidine-4,4′-quinazoline]-1-carboxamide] came in with an IC50 of 100 to 1000 nM.

The compound `O=C1Nc2ccccc2C2(CCN(C(=O)NC3Cc4ccc5[nH]ncc5c4CN(Cc4ccncc4)C3=O)CC2)N1` (stereo not drawn) [Example 29, N-[9-pyridin-4-ylmethyl-8-oxo-3,6,7,8,9,10-hexahydroazepino[3,4-e]indazol-7-yl]-2′-oxo-2′,3′-dihydro-1H,1′H-spiro[piperidine-4,4′-quinazoline]-1-carboxamide] registered an IC50 of 100 to 1000 nM.

Take `CN1Cc2cc(OCc3ccccc3)ccc2CC(NC(=O)N2CCC(N3Cc4ccccc4NC3=O)CC2)C1=O` (stereo not drawn) [Example 31, 4-(2-Oxo-1,4-dihydro-2H-quinazolin-3-yl)-piperidine-1-carboxylic acid (8-benzyloxy-2-methyl-3-oxo-2,3,4,5-tetrahydro-1H-benzo[c]azepin-4-yl)-amide]: the IC50 was more than 1000 nM.

For the compound `CN1Cc2cc(O)ccc2CC(NC(=O)N2CCC(N3Cc4ccccc4NC3=O)CC2)C1=O` (stereo not drawn) [Example 32, 4-(2-Oxo-1,4-dihydro-2H-quinazolin-3-yl)-piperidine-1-carboxylic acid (8-hydroxy-2-methyl-3-oxo-2,3,4,5-tetrahydro-1H-benzo[c]azepin-4-yl)-amide], the 50% inhibitory concentration (IC50) lay within 100 to 1000 nM.

Compound `CN1Cc2c(cc(Cl)c(O)c2Cl)CC(NC(=O)N2CCC(N3Cc4ccccc4NC3=O)CC2)C1=O` (stereo not drawn) [Example 33, 4-(2-Oxo-1,4-dihydro-2H-quinazolin-3-yl)-piperidine-1-carboxylic acid (7,9-dichloro-8-hydroxy-2-methyl-3-oxo-2,3,4,5-tetrahydro-1H-benzo[c]azepin-4-yl)-amide] came in with a half-maximal inhibitory concentration (IC50) of more than 1000 nM.

In the case of `CN1Cc2c(cc(Br)c(O)c2Br)CC(NC(=O)N2CCC(N3Cc4ccccc4NC3=O)CC2)C1=O` (stereo not drawn) [Example 34, 4-(2-Oxo-1,4-dihydro-2H-quinazolin-3-yl)-piperidine-1-carboxylic acid (7,9-dibromo-8-hydroxy-2-methyl-3-oxo-2,3,4,5-tetrahydro-1H-benzo[c]azepin-4-yl)-amide], the IC50 was 100 to 1000 nM.

`O=C(C[C@@H]1Cc2cc(Cl)c3[nH]ncc3c2CN(Cc2ccncc2)C1=O)N1CCC(c2cc(-c3ccccc3)[nH]n2)CC1` [Example 35, (S)-4-Chloro-7-(2-oxo-2-(4-(5-phenyl-1H-pyrazol-3-yl)piperidin-1-yl)ethyl)-9-(pyridin-4-ylmethyl)-6,7,9,10-tetrahydroazepino[3,4-e]indazol-8(3H)-one]: the IC50 fell in the range of 10 to 100 nM.
